Laboratory results published in patent USRE47475E1, “Selective agents for pain suppression” (WiSys Technology Foundation, Inc., priority 2002, dated 2019).
Where two headings read alike, the source gives them in different places.

What was measured:
[1] = system: Formalin Pain (mouse, i.p.); experiment: T22 formalin test (chemically induced pain); type: in vivo
Protocol: This elicits a distinct bi-phasic behavioral profile in response to the formalin injection characterized by licking of the affected paw, and the number of licks is measured as a proxy for perceived pain. The first (acute) phase is thought to correspond to the direct stimulation of peripheral fibers while the second (inflammatory) phase is caused by the release of inflammatory mediators from the damaged tissue and nerve endings. Thus, this model is ideally suited for efficacy of an investigational AED against the acute and chronic hyper-responsive neuronal discharges following activation of peripheral nerve fibers.
The results of the formalin test are given both as raw data (“Response”) and in an aggregate, analyzed form (“Analysis”). In the Response section, each Trial involves sixteen animals, eight controls given an i.p. injection of vehicle and eight given the compound at a specified dose. Thus, for multiple doses of the compound, there will also be multiple control groups. The data recorded for each animal is the amount of time(s) spent licking the affected hind paw in a two minute period. These two minute periods occur at five minute intervals and continue for 45 minutes. […] From this plot, we can then determine the area under the curve (AUC) for each animal during both the acute and inflammatory stages. The AUC for each phase is shown in the analysis section of the data sheet for both control and drug-treated animals The AUC for each drug-treated animal is compared to the average result from the control group, yielding an average percent of control (reported with the SEM and p value).

[2] = system: GABAA receptors of superficial dorsal horn neurons; experiment: whole-cell patch-clamp of GABA-induced currents in spinal cord slices; type: cell-based, mice; settings: diazepam 1 μM
Protocol: Electrophysiology of Spinal Cord Slices. […] GABAergic membrane currents are recorded from superficial dorsal horn neurons (laminae I and II) as described previously. […] GABA-induced currents are recorded from capsaicin sensitive DRG neurons 3-30 h after plating. Whole-cell patch-clamp recordings are performed from neurons identified under visual control using the infrared gradient contrast technique coupled to a video microscopy system. In both preparations, GABA (1 mM) is applied to the some of the recorded neuron via a glass pipette by short (10 ms) electronically controlled puffer applications at a frequency of 0.07 Hz.
Spinal cord GABAA receptors: Whole-cell patch-clamp electrophysiology recordings are performed in spinal cord slices of GABAA receptor mutant mice and of corresponding wt mice. […] GABA-induced membrane currents are evoked by external application of GABA (3 mM) to neurons located in the superficial layers (lamina I and II) of the spinal cord dorsal horn.

rhesus monkeys = experiment: conflict model of anxiolytic activity which also measures sedation; type: in vivo; settings: intravenously in propylene glycol/water
Protocol: The data in FIGS. 21A-21F reflect the ability of the compounds or drugs to exert an anxioyic effect in rhesus monkeys (J. Rowlett, J. M. Cook et al., unpublished results) when given intravenously in propylene glycol/water solution. This is the conflict model of anxiolytic activity which also measures sedation. […] In FIG. 21B, SH-053-2′F (JY-XHE-053) is anxiolytic at a dose of greater than 0.13 mg/kg, but exerts only some slight sedation at doses greater than 1.2 mg/kg (responses decrease). In FIG. 21C it is clear the S-enantiomer of SH-053-2′F—S—CH3 is anxiolytic with no sedation up to 10-18 mg/kg, which is the highest dose tested.

[3] = biological target: T1, GABAA/α5 (α5β3γ2 GABAA receptor) (Homo sapiens, UniProt P18507+P31644); experiment: competitive binding assay with [3H]flunitrazepam
T1 construct: expressed in transfected cells
Protocol: (§1) Membranes were harvested with a Brandel cell harvester followed by three ice-cold washes onto polyethyleneimine-pretreated (0.3%) Whatman GF/C filters. Filters were dried overnight and then soaked in Ecoscint, a liquid scintillation cocktail (National Diagnostics; Atlanta, Ga.). Bound radioactivity was quantified by liquid scintillation counting. Membrane protein concentrations were determined using an assay kit from Bio-Rad (Hercules, Calif.) with bovine serum albumin as the standard.
as §1, with “The GABAA subunit selectivity of several compounds prepared as described above were determined using competitive binding assays. […] Membranes” for “Membranes”

[4] = biological target: T2, GABAA/α6 (α6β3γ2 GABAA receptor) (Homo sapiens, UniProt P18507+Q16445); experiment: competitive binding assay with [3H]flunitrazepam
T2 construct: expressed in transfected cells
Protocol: as §1
as §1, with “The GABAA subunit selectivity of several compounds prepared as described above were determined using competitive binding assays. […] Membranes” for “Membranes”

[5] = biological target: T3, GABAA/α1 (α1β3γ2 GABAA receptor) (Homo sapiens, UniProt P14867+P18507); experiment: competitive binding assay with [3H]flunitrazepam
T3 construct: expressed in transfected cells
Protocol: as §1
as §1, with “The GABAA subunit selectivity of several compounds prepared as described above were determined using competitive binding assays. […] Membranes” for “Membranes”

[6] = biological target: T4, GABAA/α2 (α2β3γ2 GABAA receptor) (Homo sapiens, UniProt P18507+P47869); experiment: competitive binding assay with [3H]flunitrazepam
T4 construct: expressed in transfected cells
Protocol: as §1
as §1, with “The GABAA subunit selectivity of several compounds prepared as described above were determined using competitive binding assays. […] Membranes” for “Membranes”

[7] = biological target: T5, GABAA/α3 (α3β3γ2 GABAA receptor) (Homo sapiens, UniProt P18507+P34903); experiment: competitive binding assay with [3H]flunitrazepam
T5 construct: expressed in transfected cells
Protocol: as §1
as §1, with “The GABAA subunit selectivity of several compounds prepared as described above were determined using competitive binding assays. […] Membranes” for “Membranes”

neuropathic pain = settings: Knabl et al., 2008, cited from earlier work; for analgesic effect after repeated administration (tolerance): once per day for nine days
[8] = system: neuropathic pain after CCI of the sciatic nerve; experiment: chronic constriction injury (CCI) model, mechanical sensitization (von Frey filaments); type: in vivo, mice
Protocol: In addition, the pro- or antinociceptive effects of the compounds of the present invention are analyzed in the chronic constriction injury (CCI) model. The GABAA receptor subunit selective test compounds of the present invention are analysed in the CCI model in 7-8-week-old C57BL/6 mice. See Bennett, G. J. & Xie, Y. K. A peripheral mononeuropathy in rat that produces disorders of pain sensation like those seen in man. […] Seven to eight week old mice are anesthetized with isofluran. Unilateral constriction injury of the left sciatic nerve just proximal to the trifurcation is performed with three loose ligatures. In sham-operated animals the sciatic nerve is exposed and the connective tissue is freed, but no ligatures are applied. […] Heat hyperalgesia, cold allodynia and mechanical sensitization are assessed 7-9 days after surgery. Mechanical sensitivity is assessed with electronic von Frey filaments (IITC).
Pain studies—Neuropathic pain: HZ166 and gabapentin were analyzed in the chronic constriction injury (CCI) model. Unilateral constriction injury of the left sciatic nerve just proximal to the trifurcation was performed as described previously (Bennett and Xie, 1988). Anesthesia was induced and maintained by 2% isoflurane, combined with oxygen (30%). The sciatic nerve was exposed at the mid-thigh level proximal to the sciatic trifurcation by blunt dissection through the biceps femoris muscle. […] of nerve were freed of adhering tissue and three chromic gut ligatures (4/0) (Ethicon) were loosely put around the nerve with about 1 mm spacing. The ligatures were tied until they elicited a brief twitch in the hindlimb. The surgical wound was closed in layers. Heat hyperalgesia and mechanical sensitization were assessed 7-16 days after surgery.
Pain Studies—Mechanical sensitization: Mechanical sensitivity was assessed with dynamic von Frey filaments (IITC, Woodland Hills, Calif.). 4-5 measurements were made for each time point and animal and averaged. Measurements of paw withdrawal thresholds of the injured paw and of the contralateral paw were made alternately.
Statistical Analysis: For all different doses and vehicle, baseline paw withdrawal thresholds/latencies on day 7 after nerve ligation or on day 2 after zymosan A injection were subtracted from all later withdrawal thresholds and the area under the curve (AUC) was calculated. Drug effects were expressed as percent maximum possible effect (MPE) calculated from comparisons of paw withdrawal latencies or thresholds obtained prior to surgery or inflammation and before and after drug treatment. […] Unless otherwise indicated, statistical comparisons were made with one-way analysis of variance (ANOVA) followed by Scheffe's post hoc test. P values<0.05 were considered significant.

[9] = system: Sciatic Ligation neuropathic pain; experiment: T23 partial ligation of the sciatic nerve (mechanical allodynia); type: in vivo, rats
Protocol: Neuropathic pain. The pro- or antinociceptive effects of the compounds of the present invention are analyzed in two manners. […] Sterile technique will be used throughout the surgery. The upper thigh will be shaved and wiped off with ethanol and betadine. A small incision will then be made in the skin. The underlying muscle of the upper thigh will be separated and the sciatic nerve exposed. The nerve is separated from the surrounding connective tissue and slightly elevated by a pair of fine, curved forceps. Approximately ⅓ to ½ of the nerve is tied off by passing a needle (7.0) and nylon suture through the nerve. The muscle and skin incision are closed off separately with 5.0 suture and the animals kept warm until they have recovered from the anesthesia. This procedure is routinely done on the right side (ipsilateral) while a sham surgery is performed on the left hind leg (contralateral). The latter involves a similar procedure with the exception that the sciatic nerve on this side is only exposed. The rats will be closely monitored daily for the development of infection or untoward effects of the surgery in which case the animals will be immediately euthanized
After an appropriate time for recovery (7 days) the animals will be tested for the development of mechanical allodynia (abnormal response to a non-noxious stimulus). The animals are each put in a bottomless plexiglass box placed on a wire mesh (¼″) platform. After 30-60 minutes in which to acclimate, a baseline mechanical sensitivity is determined. This procedure is done by applying a series of calibrated Von Frey fibres perpendicularly to the plantar surface of each hind paw and holding it there for about 6 secs with enough force to slightly bend the fibre. After a positive response (withdrawal of the foot) is noted a weaker fibre is applied. This is repeated until a 50% threshold for withdrawal can be determined
The allodynic threshold is then redetermined after intraperitoneal administration of an investigational AED. Testing will be conducted at the time-to-peak effect of the AED as determined in the acute seizure model.

[10] = system: motor coordination of mice; experiment: rotarod test (motor impairment); type: in vivo; settings: HZ166 16 and 48 mg/kg, gabapentin 10 and 30 mg/kg, i.p., 60 min after treatment
Protocol: Motor impairment: A possible impairment of motor function was analyzed in the rotarod test. Mice were trained on the rotarod (diameter 3 cm, 2 rpm) for 2 days. Animals capable of remaining on the rotarod in the absence of treatment for at least 2 min were selected for drug testing. On the test day, the latency to fall off the rod was recorded before and 60 minutes after treatment with vehicle, HZ166 or gabapentin.

[11] = system: locomotor activity of mice; experiment: spontaneous locomotor activity (activity cage); type: in vivo; settings: i.p.
Protocol: Locomotor activity: Spontaneous locomotor activity was tested using a commercially available microprocessor equipped activity cage (actiframe, Gerb Elektronik). Mice were placed in the activity cage 15 min before testing. Locomotor activity was measured for 1 h after intraperitoneal administration of vehicle, gabapentin or HZ166 during the early light phase of the day-night cycle.

[12] = Binding Affinity at GABAA/α5, Table 3
[13] = Binding Affinity at GABAA/α1, Table 3
[14] = Binding Affinity at GABAA/α2, Table 3
[15] = Binding Affinity at GABAA/α3, Table 3
[16] = dose 35.5 (HZ-166), 18 (JY-XHE-053), 1 (XLI-JY-DMH) mg/kg, TPE 2 hr

## CN1C(=O)CN=C(c2ccccc2)c2cc(Cl)ccc21 [Diazepam, diazepam]
[1]; mouse formalin test and model of sciatic nerve ligation
  level of pain response: strongly reduced
[2]; wild-type mice, mean±SEM, n=11
  potentiation of GABA induced currents: 150.1±7.54%
[2]; α1 mutant mice
  potentiation of GABA induced currents: 165±22.3%
[2]; α2 mutant mice
  potentiation of GABA induced currents: 106.9±3.6%
[2]; α3 mutant mice
  potentiation of GABA induced currents: 102.5±6.6%
[2]; α5 mutant mice
  potentiation of GABA induced currents: 126±13.0%
Rhesus monkeys
  anxiolytic effect (conflict model): anxiolytic

## CCOC(=O)c1ncn2c1CN=C(c1ccccc1)c1cc(I)ccc1-2 [HZ 120, Ethyl 8-iodo-6-phenyl-4H-benzo[f]imidazo[1,5-a][1,4]diazepine-3-carboxylate]
[3]; [12]
  Ki: 20.6 nM
[4]
  Ki: 32.2 nM
[5]; [13]
  Ki: > 5000 nM
[6]; [14]
  Ki: 35 nM
[7]; [15]
  Ki: 78.5 nM

## Cn1ncnc1COc1nn2c(-c3cc(F)ccc3F)nnc2cc1C(C)(C)C [L-838,417]
Neuropathic pain
  antihyperalgesic activity in a rat neuropathic pain model: good antihyperalgesic activity
  analgesic effect after repeated administration (tolerance): did not diminish

## C#Cc1ccc2c(c1)C(c1ccccc1)=NCc1c(-c3nc(CC)no3)ncn1-2 [PS-I-26]
[3]; [12]
  Ki: 394 nM
[4]
  Ki: > 5000 nM
[5]; [13]
  Ki: 933 nM
[6]; [14]
  Ki: 366 nM
[7]; [15]
  Ki: 260 nM

## C#Cc1ccc2c(c1)C(c1ccccc1Cl)=NCc1nnc(C)n1-2 [XLI-JY-DMH, 8-Acetyleno-5-(2′-chlorophenyl)-1-methyl-4H-s-triazolo-[4,3-a]-1,4-benzodiazepine]
[3]; Table 3, read-out: Binding Affinity at GABAA/α5
  Ki: 4.4 nM
[4]; Table 3, read-out: Binding Affinity at GABAA/α6
  Ki: > 5000 nM
[5]; Table 3, read-out: Binding Affinity at GABAA/α1
  Ki: 3.3 nM
[6]; Table 3, read-out: Binding Affinity at GABAA/α2
  Ki: 0.58 nM
[7]; Table 3, read-out: Binding Affinity at GABAA/α3
  Ki: 1.9 nM
[8]; mouse, in vivo
  analgesic effects in the chronic constriction injury model of neuropathic pain: analgesic effects
[1]; formalin test, acute phase
  protection at the acute phase of chemically induced pain: insignificant
[1]; mouse, i.p., acute phase, dose 16 (HZ-166), 10 (JY-XHE-053), 1 (XLI-JY-DMH) mg/kg
  Change (% of Control) ± SEM, T22 Formalin Pain, Acute: 87.6 % of Control
[1]; mouse, i.p., inflammatory phase, dose 16 (HZ-166), 10 (JY-XHE-053), 1 (XLI-JY-DMH) mg/kg
  Change (% of Control) ± SEM, T22 Formalin Pain, inflammatory: 111.9 % of Control
[9]; T23 sciatic ligation
  protection against neuropathic pain caused by sciatic ligation: insignificant
[9]; [16]
  Change (% of Control) ± SEM, T23 Sciatic Ligation: 136 % of Control
  Significance, T23 Sciatic Ligation: no

## NCC1(CC(=O)O)CCCCC1 [gabapentin, reference compound]
[8]; i.p., CCI model
  reversal of mechanical hypersensitivity: dose-dependent reversal
[8]; reached only with sedative doses
  maximum antihyperalgesic effect (efficacy) compared with HZ166: higher
[10]
  interfered with rotarod performance: Neither
[11]
  dose at which sedative effects were observed: 30 mg/kg
  doses with significant reduction in locomotor activity: ≥ 30 mg/kg

## CN1CC[C@]23c4c5ccc(O)c4O[C@H]2[C@@H](O)C=C[C@H]3[C@H]1C5 [morphine]
Neuropathic pain
  analgesic effect after repeated administration (tolerance): complete tolerance
